Where “and” joins values, the source holds several entries; their conditions need not be identical. Identical values can stand only once.
System: Hs578T complex spheroid growth, percent test/control
Experiment: Anticancer human tumor Hs578T cell line growth inhibition [AhR];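 note: luminescent viability signal as a proxy for spheroid growth; spheroids exposed to agents for one week after three days of growth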
Conditions: for viability, T/C: stronger effect = lower value
From the text: Multicellular complex tumor spheroid response to aryl hydrocarbon receptor antagonists in combination with a variety of drugs and investigational agents in selected tumor cell lines
The current study was undertaken to assess response to aryl hydrocarbon receptor antagonists in combination with standard-of-care drugs and investigational agents in solid tumor complex spheroid models. Complex spheroids include a stromal component modeled by human endothelial cells (HUVEC) and fibroblasts modeled by human mesenchymal stem cells (MSCs). The concentration ranges selected for each drug and investigational agent were based upon clinically achievable concentrations if the clinical Cmax of the agent was known.
Compounds. The drugs and investigational agents: BAY 2416964 (NSC825713), GNF351 (NSC835774), CH-223191 (NSC835775), CPI-455 (NSC825282), aza-TdCyd (NSC777586), decitabine (NSC127716), belinostat (NSC758774), entinostat (NSC756642), pevonedistat (NSC761192), tazemetostat (NSC777109), talazoparib (NSC765396), olaparib (NSC753686), selinexor (NSC780203), nedisertib (M3814, NSC802822), bortezomib (NSC756655), venetoclax (NSC766270), doxorubicin (NSC123127), elimusertib (BAY189344, NSC800525), ceralasertib (AZD6738, NSC777638), TAK-243 (NSC785004), alisertib (NSC759677), etoposide (NSC141540), topotecan (NSC609699), eribulin (NSC707389), gemcitabine (NSC613327), carboplatin (NSC241240), cisplatin (NSC119875), and SN-38 (NSC673596) were obtained from the National Cancer Institute (NCI) Developmental Therapeutics Program Chemical Repository (32). The FDA-approved anticancer drug set is available from the Developmental Therapeutics Program at https://dtp.cancer.gov/organization/dscb/obtaining/available plates.htm. […] The stock solutions were prepared in dimethyl sulfoxide (DMSO, Sigma-Aldrich, St. Louis, MO, cat. D2650), except for the platinum compounds which were prepared in saline (Quality Biological, Gaithersburg, MD, cat. 114-055-101), at 800-fold the tested concentration and stored at -70 degrees C prior to their use. All drugs and investigational agents were tested over a range starting from a high concentration at or near the clinical Cmax and decreasing in half-log increments. If the clinical Cmax for an agent had not been determined, the highest concentration tested was 10 microM (Table 1).
Cell Culture. All cells were maintained in an incubator at 37 degrees C and 5% CO2 with 95% humidity. The PDC lines were cultured according to standard operating procedures established by the NCI PDMR (https://pdmr.cancer.gov). Briefly, all PDCs were thawed and cultured in Matrigel-coated flasks prepared with a working solution of 1X Ham's F-12 nutrient mix, without supplementation (Invitrogen, Waltham, MA, cat. 11765054), 100 U/mL penicillin-streptomycin (Invitrogen, cat. 15140122), and 2.5% Matrigel (Corning Inc., Corning, NY, cat. 354248) for the first three passages. All PDCs were cultured in complete DMEM/F-12 media containing advanced DMEM/F-12 (Invitrogen, cat. 12634028), 4.9% defined fetal bovine serum, heat inactivated (HyClone Laboratories Inc., Logan, UT, cat. SH30070.03HI), 389 ng/mL hydrocortisone (Sigma-Aldrich, cat. H4001), 9.7 ng/mL human EGF recombinant protein (Invitrogen, cat. PHG0313), 23.4 microg/mL adenine (Sigma-Aldrich, cat. A2786), 97.3 U/mL penicillin-streptomycin (Invitrogen, cat. 15140122), 1.9 mM L-glutamine (Invitrogen, cat. 25030081), and 9.7 microM Y-27632 dihydrochloride (Tocris Bioscience, Bristol, United Kingdom, cat. 1254). The PDCs were cultured in complete DMEM/F12 media without 10 microM Y-27632 dihydrochloride for at least two passages prior to the screen. The established cell lines NCI-H1341 and […] were cultured in DMEM/F-12, HEPES (Invitrogen, cat. 11330032), 5% defined fetal bovine serum (HyClone Laboratories Inc., cat. SH30070.03), ITS premix universal culture supplement [insulin (5 microg/mL), transferrin (5 microg/mL), and selenious acid (5 ng/mL)] […]

[1] = curve of first compound, second compound 0.1 µM
[2] = curve of first compound, second compound 0.316 µM
[3] = curve of first compound, second compound 1 µM
[4] = curve of first compound, second compound 3.16 µM
[5] = curve of first compound, second compound 10 µM

For `CC1(C)CCC(CN2CCN(c3ccc(C(=O)NS(=O)(=O)c4ccc(NCC5CCOCC5)c([N+](=O)[O-])c4)c(Oc4cnc5[nH]ccc5c4)c3)CC2)=C(c2ccc(Cl)cc2)C1` + Cc1cncc(-c2nc(NCCc3c[nH]c4ccccc34)c3ncn(C(C)C)c3n2)c1, the IC50 [1] was greater than 10000 nM, the IC50 [2] was greater than 10000 nM and the IC50 [3] was greater than 10000 nM. For the same molecule, the IC50 [4] was greater than 10000 nM, the IC50 [5] was less than 31.6 nM and the viability, T/C (second compound 0.1 µM, first compound 0.0316 µM) was 117%. The viability, T/C (second compound 0.1 µM, first compound 0.1 µM) was 118%, the viability, T/C (second compound 0.1 µM, first compound 0.316 µM) was 115% and the viability, T/C (second compound 0.1 µM, first compound 1 µM) was 94.8%. It also gave a viability, T/C (second compound 0.1 µM, first compound 3.16 µM) of 95.9%, a viability, T/C (second compound 0.1 µM, first compound 10 µM) of 82.6% and a viability, T/C (second compound 0.316 µM, first compound 0.0316 µM) of 117%. It also gave a viability, T/C (second compound 0.316 µM, first compound 0.1 µM) of 118%, a viability, T/C (second compound 0.316 µM, first compound 0.316 µM) of 112% and a viability, T/C (second compound 0.316 µM, first compound 1 µM) of 109%. The viability, T/C (second compound 0.316 µM, first compound 3.16 µM) was 105%, the viability, T/C (second compound 0.316 µM, first compound 10 µM) was 97.4% and the viability, T/C (second compound 1 µM, first compound 0.0316 µM) was 113%. For the same molecule, the viability, T/C (second compound 1 µM, first compound 0.1 µM) was 111%, the viability, T/C (second compound 1 µM, first compound 0.316 µM) was 109% and the viability, T/C (second compound 1 µM, first compound 1 µM) was 108%. For the same molecule, the viability, T/C (second compound 1 µM, first compound 3.16 µM) was 111%, the viability, T/C (second compound 1 µM, first compound 10 µM) was 92.8% and the viability, T/C (second compound 3.16 µM, first compound 0.0316 µM) was 49.6%. The viability, T/C (second compound 3.16 µM, first compound 0.1 µM) was 65.6%, the viability, T/C (second compound 3.16 µM, first compound 0.316 µM) was 65.5% and the viability, T/C (second compound 3.16 µM, first compound 1 µM) was 56.4%. The viability, T/C (second compound 3.16 µM, first compound 3.16 µM) was 69.2%, the viability, T/C (second compound 3.16 µM, first compound 10 µM) was 75.2% and the viability, T/C (second compound 10 µM, first compound 0.0316 µM) was 3.98%. It also gave a viability, T/C (second compound 10 µM, first compound 0.1 µM) of 3.8%, a viability, T/C (second compound 10 µM, first compound 0.316 µM) of 4.95% and a viability, T/C (second compound 10 µM, first compound 1 µM) of 5.32%. The viability, T/C (second compound 10 µM, first compound 3.16 µM) was 4.95% and the viability, T/C (second compound 10 µM, first compound 10 µM) was 8.06%.

In the case of `CC(C)CC(NC(=O)C(Cc1ccccc1)NC(=O)c1cnccn1)B(O)O` (centres undefined), the viability, T/C (compound 0.000949 µM) is reported as 105% and 102% and 101%, the viability, T/C (compound 0.003 µM) is reported as 94% and 86.9% and 73.4% and the viability, T/C (compound 0.00949 µM) is reported as 29.3% and 16.7% and 7.03%. The viability, T/C (compound 0.03 µM) was 0.41% and 0.42% and 0.68%, the viability, T/C (compound 0.0949 µM) was 0.27% and 0.44% and 1.61% and the viability, T/C (compound 0.3 µM) was 0.58% and 0.42% and 0.53%. For the same molecule, the IC50 (curve of compound) was 6.56 nM and 5.49 nM and 4.5 nM.

For `CCN(c1cc(-c2ccc(CN3CCOCC3)cc2)cc(C(=O)NCc2c(C)cc(C)[nH]c2=O)c1C)C1CCOCC1` + CC(CO)NC(=O)c1cc(-c2ccc(Cl)cc2)nn(-c2cnn(C)c2)c1=O, the IC50 [1] was greater than 3000 nM, the IC50 [2] was greater than 3000 nM and the IC50 [3] was greater than 3000 nM. The IC50 [4] was greater than 3000 nM, the IC50 [5] was greater than 3000 nM and the viability, T/C (second compound 0.1 µM, first compound 0.00949 µM) was 116%. The viability, T/C (second compound 0.1 µM, first compound 0.03 µM) was 112%, the viability, T/C (second compound 0.1 µM, first compound 0.0949 µM) was 112% and the viability, T/C (second compound 0.1 µM, first compound 0.3 µM) was 102%. For the same molecule, the viability, T/C (second compound 0.1 µM, first compound 0.949 µM) was 104%, the viability, T/C (second compound 0.1 µM, first compound 3 µM) was 112% and the viability, T/C (second compound 0.316 µM, first compound 0.00949 µM) was 114%. For the same molecule, the viability, T/C (second compound 0.316 µM, first compound 0.03 µM) was 112%, the viability, T/C (second compound 0.316 µM, first compound 0.0949 µM) was 122% and the viability, T/C (second compound 0.316 µM, first compound 0.3 µM) was 109%. It also gave a viability, T/C (second compound 0.316 µM, first compound 0.949 µM) of 114%, a viability, T/C (second compound 0.316 µM, first compound 3 µM) of 98.4% and a viability, T/C (second compound 1 µM, first compound 0.00949 µM) of 113%. For the same molecule, the viability, T/C (second compound 1 µM, first compound 0.03 µM) was 121%, the viability, T/C (second compound 1 µM, first compound 0.0949 µM) was 120% and the viability, T/C (second compound 1 µM, first compound 0.3 µM) was 107%. For the same molecule, the viability, T/C (second compound 1 µM, first compound 0.949 µM) was 111%, the viability, T/C (second compound 1 µM, first compound 3 µM) was 113% and the viability, T/C (second compound 3.16 µM, first compound 0.00949 µM) was 107%. It also gave a viability, T/C (second compound 3.16 µM, first compound 0.03 µM) of 113%, a viability, T/C (second compound 3.16 µM, first compound 0.0949 µM) of 115% and a viability, T/C (second compound 3.16 µM, first compound 0.3 µM) of 111%. The viability, T/C (second compound 3.16 µM, first compound 0.949 µM) was 104%, the viability, T/C (second compound 3.16 µM, first compound 3 µM) was 106% and the viability, T/C (second compound 10 µM, first compound 0.00949 µM) was 107%. It also gave a viability, T/C (second compound 10 µM, first compound 0.03 µM) of 104%, a viability, T/C (second compound 10 µM, first compound 0.0949 µM) of 107% and a viability, T/C (second compound 10 µM, first compound 0.3 µM) of 92.3%. For the same molecule, the viability, T/C (second compound 10 µM, first compound 0.949 µM) was 101% and the viability, T/C (second compound 10 µM, first compound 3 µM) was 106%.

With `CC1COCCN1c1cc(-c2ccnn2C)c2ccnc(-c3ccn[nH]3)c2n1` (centres undefined) the viability, T/C (compound 0.00316 µM) was 109% and 104% and 102%, the viability, T/C (compound 0.01 µM) was 105% and 104% and 114% and the viability, T/C (compound 0.0316 µM) was 97.8% and 102% and 95.5%. The viability, T/C (compound 0.1 µM) was 78.7% and 81.3% and 77.2%, the viability, T/C (compound 0.316 µM) was 60.4% and 51% and 48.1% and the viability, T/C (compound 1 µM) was 44.3% and 36.2% and 37.9%. For the same molecule, the IC50 (curve of compound) was 658 nM and 326 nM and 298 nM.

From PubChem BioAssay AID1919010 (Molecular Pharmacology Branch, DTP, NCI, 2023)
